Experimental findings from patent US20240269308A1, “PRODRUGS OF TOPOISOMERASE I INHIBITOR FOR ADC CONJUGATIONS AND METHODS OF USE THEREOF” (priority 2022, published 2024) are described below.

The structures appear in SMILES notation. Where two headings read alike, the source gives them in different places.

Series [1] relates to SK-BR-3 cells. The series can be described thus: SKBR3 cell-based anti-proliferation / viability assay (CellTiter-Glo). Details: species or system human. As to the method: (§1) The anti-Her2 viability assay protocol is following.
(§2) 0.1% BSA was added to the Opti-MEM reduced serum media [Gibco, cat #31985-070]. This assay media was used for the dilution of ADC and free drug.
(§3) Cells were seeded in their growth media into 96 well plates (Thermo #136101) one day prior to adding ADCs: 1000/well SKBR3 cells in 80 uL media (target positive cells), 1000/well NCI-N87 cells in 80 uL media (target positive cells), 1000/well Calu-3 in 80 uL media (target positive cells), and 800/well NCI-H1975 cells in 80ul media (target negative cells).
(§4) Serial dilutions of free drug in 100% DMSO (1:4 10 pts starting from 100 uM) were prepared. Serially diluted payload was transferred into Opti-Mem with 0.1% BSA (10 uL into 990 uL media). Serial dilutions of ADCs/isotype controls at 1:4 in Opti-Mem with 0.1% BSA (starting from 5×1000 nM) were prepared. 20ul assay media diluted ADC/isotype conjugates as well as free drug were transferred to above cells. The plates were incubated at 37° C., 5% CO2 for 6 days. Plates were developed by adding 100ul CellTiter Glo 2.0. RT 5-10 min. Plates were read with Envision plate reader. Data was analyzed using Prism. Only inner 60 well are used for the assay. The edge wells were filled with media to prevent dry out.
The cell line used in the anti-proliferation assays was SK-BR-3, a human breast, adenocarcinoma (pleural effusion) cell line; The cells were grown in McCoy's 5a Medium+10% FBS. To run the assay, the cells (80 μl, 1000 cells) were added to each well in a 96-well plate and incubated for 24 hours at 37° C. with CO2. Next, the cells were treated with test compounds (20 μl) at various concentrations in appropriate cell culture medium (total volume, 0.1 mL). The control wells contain cells and the medium but lack the test compounds. The plates were incubated for 144 hours at 37° C. with CO2. CTG reagent was then added to the wells (100 μl). After the plates were shaken for 10 min and then incubated for 10 min at room temperature, paste the clear bottom with white back seal and record luminescence with Envision. The inhibition % was calculated according to the following equation: inhibition %=[1-(assay-blank)/(control-blank)]×100.
A general note: In ATP-based viability assays light output follows the ATP content of the culture.

A short description of series [2]: in vitro. The conditions noted are these: human, plasma.
Series [3] in a line: Mouse whole blood stability test. The series is classed as in vitro ADME. To be noted: for % of test compound in whole blood (initial 1 uM as 100%): 37° C. As to the method: In vitro stability of Linker-Prodrug in mouse whole blood Scheme 15. Metabolism of LP1 (M2980) in whole blood.
Stock solution of test compound was provided in 100% DMSO. The stock solution for each compound was diluted into 500 μM with mixture of 50% acetonitrile, then diluted into mouse blood to achieve a final concentration of 1.0 μM. 1.0 μM of test compound in duplicate was incubated in blood at 37° C. Aliquots of 50 uL sample was collected at 0, 15, 30, 60, 120, 240, 480 min, and 24 hours. Reactions were terminated at various time points (0, 15, 30, 60, 120, 240, 480 min, 24 hours) by adding 200 μL of ice-cold acetonitrile containing internal standard with 1% formic acid and then ultrasound for 30 seconds. Plate was centrifuged (4000 rpm, 15 min). 50 μL of supernatants were transferred into a daughter plate containing 200 μL of H2O in each well. The samples were mixed well and analyzed with UPLC-MS/MS.
A Waters liquid chromatographic system was used. Detection was performed on AP14000 Q-Trap and AP15500 mass spectrometer equipped with TurbolonSpray (ESI) Interface (Applied Biosystems, Concord, Ontario, Canada). Analyst 1.5 and 1.6.2 software packages (Applied Biosystems) were used to control the LC-MS/MS system, as well as for data acquisition and processing.
Chromatographic separation was achieved on the Wates BEH C18 column (50*2.1 mm ID, 1.7 μm). The column temperature was maintained at ambient temperature (25° C.). The flow rate was maintained at 0.6 mL/min and the following mobile phases were used: water (0.1% formic acid, v/v) (phase A) and acetonitrile (0.1% formic acid, v/v) (phase B).
Test compounds (1.0 μM) were incubated in blood at 37° C. in duplicate. Aliquots of 50 uL sample was collected at 0, 15, 30, 60, 120, 240, 480 min, and 24 hours. Reactions were terminated at various time points (0, 15, 30, 60, 120, 240, 480 min, 24 hours by adding 200 μL of ice-cold acetonitrile containing internal standard with 1% formic acid, then ultrasound for 30 seconds. The plate was centrifuged (4000 rpm, 15 min). 50 μL of supernatants were transferred into a daughter plate containing 200 μL of water in each well. Samples were mixed well and analyzed with UPLC-MS/MS.
The % was calculated based on initial 1 uM as 100% and the standard concentration curve.

For series [4], the system named is NCI-N87 cells. The series can be described thus: anti-Her2 viability assay, NCI-N87 cells (target positive). To be noted: Homo sapiens, NCI-N87, 144 h, read-out: N87 IC50 (nM). It counts as cell-based. As to the method:
as §1, §2, §3, §4

Series [5] deals with Calu-3. The experiment in a line: anti-Her2 viability assay, Calu-3 cells (target positive). The series is classed as cell-based. As to the method: as §1, §2, §3, §4
Series [6] relates to NCI-H1975 cells. The experiment in a line: anti-Her2 viability assay, NCI-H1975 cells (target negative). It counts as cell-based. As to the method:
as §1, §2, §3, §4

In series [7] the test system is JIMT-1. The series can be described thus: in vitro cell killing activity, JIMT-1 cells (CellTiter Glo viability). The series is classed as cell-based. As to the method: as §4
[8] abbreviates: Homo sapiens, SK-BR-3, read-out: SKBR3 EC50.

What is called EC50 is the concentration needed to bring the measured effect to its halfway point. As to `CC[C@@]1(O)C(=O)OCc2c1cc1n(c2=O)Cc2c-1nc1cc(F)c(C)c3c1c2[C@@H](NC(=O)COCNC(=O)[C@H](N)Cc1ccccc1)CC3` [P12, (2R)-2-amino-N-[({[(10S,23S)-10-ethyl-18-fluoro-10-hydroxy-19-methyl-5,9-dioxo-8-oxa-4,15-diazahexacyclo[14.7.1.0^2,14.0^4,13.0^6,11.0^20,24]tetracosa-1,6(11),12,14,16,18,20(24)-heptaen-23-yl]carbamoyl}methoxy)methyl]-3-phenylpropanamide], the EC50 in series [1] (setting [8]) came out at 15.3 nM.
As to `CC[C@@]1(O)C(=O)OCc2c1cc1n(c2=O)Cc2c-1nc1cc(F)c(C)c3c1c2[C@@H](NC(=O)COCNC(=O)[C@@H](N)CCCCN=[N+]=[N-])CC3` [P6, (2S)-2-amino-6-azido-N-[({[(10S,23S)-10-ethyl-18-fluoro-10-hydroxy-19-methyl-5,9-dioxo-8-oxa-4,15-diazahexacyclo[14.7.1.0^2,14.0^4,13.0^6,11.0^20,24]tetracosa-1,6(11),12,14,16,18,20(24)-heptaen-23-yl]carbamoyl}methoxy)methyl]hexanamide], the “Human plasma stability % Remaining at 24 h” value worked out at 59.0%. This compound gave a half-life in series [2] of 28.2 h. In series [3] (mouse, blood), this compound had a half-life at 1 μM of 0.2 h. Besides, the “Mouse blood stability % Remaining at 24 h” value in series [3] (mouse, blood, 1 μM) was determined as 3.3%. The EC50 in series [1] (setting [8]) stood at 2.06 nM.
The IC50 is the point on the concentration scale where inhibition reaches its midpoint. `CC[C@@]1(O)C(=O)OCc2c1cc1n(c2=O)Cc2c-1nc1cc(F)c(C)c3c1c2[C@@H](NC(=O)CO)CC3` [Dxd, reference compound]: the IC50 amounted to 2.59 nM in series [4]; 1.3 nM in series [5] (Homo sapiens, Calu-3, 144 h, read-out: Calu-3 IC50 (nM)); 3.45 nM in series [6] (Homo sapiens, NCI-H1975, 144 h, read-out: H1975 IC50 (nM)); 4.41 nM in series [7] (Homo sapiens, JIMT-1, read-out: JIMT-1 IC50 (nM)); 1.02 nM in series [1] (Homo sapiens, SK-BR-3, 144 h, read-out: SKBR3 IC50 (nM)). Besides, the “Calu-3 % Kill” value in series [5] (Calu-3 target positive cells, 6 days) came out at 94.9%. The “% of test compound in whole blood (initial 1 uM as 100%)” value in series [3] (mouse blood, 0 hr) worked out at 100.0%; in series [3] (mouse blood, 0.25 hr), 95.9%; in series [3] (mouse blood, 0.5 hr), 103.6%; in series [3] (mouse blood, 1 hr), 111.9%; in series [3] (mouse blood, 2 hr), 97.6%; in series [3] (mouse blood, 4 hr), 94.8%. In addition, the “% of test compound in whole blood (initial 1 uM as 100%)” value worked out at 94.2% in series [3] (mouse blood, 8 hr) and 94.2% in series [3] (mouse blood, 24 hr). For the same compound, the “Mouse blood stability % Remaining at 24 h” value in series [3] (mouse blood) stood at 94.8%. Also, the half-life at 1 μM in series [3] (mouse, blood, read-out: Mouse blood stability T1/2 (converted)) is 62.6 h. Moreover, in series [6] (NCI-H1975 target negative cells, 6 days), the “H1975 % Kill” value was found to be 99.3%. The “JIMT-1 % Kill” value in series [7] (JIMT-1 cells) stood at 94.5%. In series [1] (Homo sapiens, SK-BR-3, read-out: SKBR3 EC50 (nM)), the EC50 worked out at 1.63 nM. Moreover, the “SKBR3 % Kill” value in series [1] (SKBR3 target positive cells, 6 days) is given as 97.0%.
In the case of `CC[C@@]1(O)C(=O)OCc2c1cc1n(c2=O)Cc2c-1nc1cc(F)c(C)c3c1c2[C@@H](NC(=O)COCNC(=O)[C@@H](N)CCCCN)CC3` [P5, (2S)-2,6-diamino-N-[({[(10S,23S)-10-ethyl-18-fluoro-10-hydroxy-19-methyl-5,9-dioxo-8-oxa-4,15-diazahexacyclo[14.7.1.0^2,14.0^4,13.0^6,11.0^20,24]tetracosa-1,6(11),12,14,16,18,20(24)-heptaen-23-yl]carbamoyl}methoxy)methyl]hexanamide], the “Human plasma stability % Remaining at 24 h” value turned out to be 69.7%. In series [2], this compound showed a half-life of 49.4 h. Besides, the half-life at 1 μM in series [3] (mouse, blood) is 0.4 h. Further, the “Mouse blood stability % Remaining at 24 h” value in series [3] (mouse, blood, 1 μM) was 1.3%. Also, in series [1] (setting [8]), the EC50 was determined as 4.51 nM.
As for `CC[C@@]1(O)C(=O)OCc2c1cc1n(c2=O)Cc2c-1nc1cc(F)c(C)c3c1c2[C@@H](NC(=O)COCNC(=O)C(C)(C)N)CC3` [P11, 2-amino-N-[({[(10S,23S)-10-ethyl-18-fluoro-10-hydroxy-19-methyl-5,9-dioxo-8-oxa-4,15-diazahexacyclo[14.7.1.0^2,14.0^4,13.0^6,11.0^20,24]tetracosa-1,6(11),12,14,16,18,20(24)-heptaen-23-yl]carbamoyl}methoxy)methyl]-2-methylpropanamide], in series [1] (setting [8]), the EC50 is 27.7 nM.
Take `CC[C@@]1(O)C(=O)OCc2c1cc1n(c2=O)Cc2c-1nc1cc(F)c(C)c3c1c2[C@@H](NC(=O)COCNC(=O)CNC(=O)CN)CC3` [P8, 2-amino-N-({[({[(10S,23S)-10-ethyl-18-fluoro-10-hydroxy-19-methyl-5,9-dioxo-8-oxa-4,15-diazahexacyclo[14.7.1.0^2,14.0^4,13.0^6,11.0^20,24]tetracosa-1,6(11),12,14,16,18,20(24)-heptaen-23-yl]carbamoyl}methoxy)methyl]carbamoyl}methyl)acetamide]: the “Human plasma stability % Remaining at 24 h” value was found to be 86.0%. The same compound gave a half-life in series [2] of 144 h. Moreover, the half-life at 1 μM in series [3] (mouse, blood) was 2.9 h. In series [3] (mouse, blood, 1 μM), the “Mouse blood stability % Remaining at 24 h” value amounted to 46.9%. The EC50 in series [1] (setting [8]) is 30.8 nM.
`CC[C@@]1(O)C(=O)OCc2c1cc1n(c2=O)Cc2c-1nc1cc(F)c(C)c3c1c2[C@@H](NC(=O)COCN(C)C(=O)CN)CC3` [P9, 2-amino-N-[({[(10S,23S)-10-ethyl-18-fluoro-10-hydroxy-19-methyl-5,9-dioxo-8-oxa-4,15-diazahexacyclo[14.7.1.0^2,14.0^4,13.0^6,11.0^20,24]tetracosa-1,6(11),12,14,16,18,20(24)-heptaen-23-yl]carbamoyl}methoxy)methyl]-N-methylacetamide]: the EC50 in series [1] (setting [8]) is 69.5 nM.
